For one assay, the target named is T1, 5-Lipoxygenase (Homo sapiens, UniProt P09917).
T1 sequence (P09917 1-674): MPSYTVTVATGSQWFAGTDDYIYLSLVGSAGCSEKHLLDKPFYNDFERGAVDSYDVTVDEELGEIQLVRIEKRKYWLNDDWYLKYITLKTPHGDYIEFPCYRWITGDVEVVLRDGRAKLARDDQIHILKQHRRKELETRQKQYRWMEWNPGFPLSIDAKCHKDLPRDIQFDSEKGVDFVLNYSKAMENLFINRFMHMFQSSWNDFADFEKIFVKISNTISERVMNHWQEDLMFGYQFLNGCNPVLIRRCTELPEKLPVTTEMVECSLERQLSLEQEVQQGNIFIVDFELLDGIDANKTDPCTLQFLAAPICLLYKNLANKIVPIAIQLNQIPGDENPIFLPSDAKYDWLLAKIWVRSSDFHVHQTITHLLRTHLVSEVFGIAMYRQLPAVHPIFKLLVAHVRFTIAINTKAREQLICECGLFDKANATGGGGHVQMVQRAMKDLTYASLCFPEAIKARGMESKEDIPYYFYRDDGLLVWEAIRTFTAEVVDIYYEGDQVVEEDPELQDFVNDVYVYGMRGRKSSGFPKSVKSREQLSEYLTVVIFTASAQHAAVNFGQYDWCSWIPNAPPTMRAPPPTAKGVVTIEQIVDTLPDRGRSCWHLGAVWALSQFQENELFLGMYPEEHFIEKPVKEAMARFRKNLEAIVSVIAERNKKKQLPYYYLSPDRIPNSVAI
Nature of the assay: Inhibition of calcium ionophore A23187-induced LTB4 biosynthesis in human whole blood (5-Lipoxygenase Inhibitory Activity). Type of assay: cell-based. On the set-up: endogenous in cells; host or cells: human heparinized whole blood (blood leukocytes). As for the experimental part: Inhibition of leukotriene biosynthesis was evaluated in an assay, involving calcium ionophore-induced LTB4 biosynthesis expressed human whole blood. Human heparinized whole blood was preincubated with test compounds or vehicle for 15 min at 37° C. followed by calcium ionophore A23187 challenge (final concentration of 8.3 μM) and the reaction terminated after 30 min by adding two volumes of methanol containing prostaglandin B2 as an internal recovery standard. The methanol extract was analyzed for LTB4 using a commercially available radioimmunoassay.

For the next assay, the system named is Leukotriene Biosynthesis. Put plainly: Inhibition of leukotriene biosynthesis in vivo after oral administration, rat peritoneal anaphylaxis model. The conditions noted are these: oral gavage 100 μmol/kg, one hour prior to antigen challenge, peritoneal fluid leukotrienes 15 min after challenge. How it is done: Inhibition of the biosynthesis of leuktrienes in vivo after oral administration of compound was determined using a rat peritoneal anaphylaxis model in a similar manner as that described by Young and coworkers (Young, P. R.; Dyer, R. D.; Carter, G. W. Fed. Proc., Fed. Am. Soc. Exp. Biol. 1985 (44), 1185). In this model rats were injected intraperitoneally (ip) with rabbit antibody to bovine serum albumin (BSA) and three hours later injected ip with BSA to induce an antgen-antibody response. Rats were sacrificed 15 minutes after this challenge and the peritoneal fluids were collected and analyzed for leukotriene levels. Test compounds were administered by gavage one hour prior to the antigen challenge. Percent inhibition values were determined by comparing the treatment group to the mean of the control group.

Consider “Z-N-[4-(5-(4 -fluorophenoxy)-2-furanyl)-2-fluorobut-3-en-2-yl]-N-hydroxyurea [Example 3]”, for which the “5-Lipoxygenase Inhibitory Activity, percent inhibition” value on 5-Lipoxygenase (at 0.39 (10^-6 M), human whole blood LTB4) worked out at 77%.
On to `NC(=O)N(O)CC=Cc1ccc(Oc2ccccc2)o1` [Example 2, N-hydroxy-N-[3-(5-phenoxyfur-2-yl)prop-2-enyl]urea], for which the “Percent Inhibition of Leukotriene Biosynthesis at an Oral Dose of 100 μmol/kg” value in the assay on Leukotriene Biosynthesis amounted to 99%.
Usually IC50 stands for the point on the concentration scale where inhibition reaches its midpoint. For `CC(/C=C/c1ccc(Oc2ccc(F)cc2)o1)N(O)C(N)=O` (stereo not shown) [Example 1, E-N-[4-(5-(4-Fluorophenoxy)-2-furanyl)but-3-en-2-yl]-N-hydroxyurea], in the assay with Leukotriene Biosynthesis, the “Percent Inhibition of Leukotriene Biosynthesis at an Oral Dose of 100 μmol/kg” value was determined as 98%. Besides, the IC50 at 5-Lipoxygenase (human heparinized whole blood, LTB4 by radioimmunoassay, A23187 8.3 μM, 15 min preincubation at 37° C.) is 160 nM.

The values are drawn from patent US5169854A, “N-substituted-furylalkenyl hydroxamic acid and N-hydroxyurea compounds having lipoxygenase inhibitory activity” (Abbott Laboratories, priority 1992, dated 1992).
